The subject of assay [1] is Daudi cells. Put plainly: Growth inhibition (MTT assay) in Daudi cells. The assay is classed as cell-based. Conditions: for IC50: Homo sapiens, Daudi. The method, then: (§1) These were performed using HL60 human promyelocytic leukemia cells or Daudi Burkitt lymphoma cells essentially as described previously (23). Briefly, cells were seeded into 96 well dishes (5000 cells/well and 10,000 cells/well for HL60 and Daudi cells, respectively). Growth medium consisted of RPMI medium supplemented with Penicillin/Streptomycin, glutamine and 10% fetal bovine serum. The indicated concentrations of each compound were then added and 10-point growth inhibition assays were performed 3-5 days later using the MTT assay. Each point was performed in quadruplicate.
(§2) Daudi Burkitt lymphoma and HL60 promyelocytic leukemia cells were maintained in RPMI medium supplemented with 10% fetal bovine serum.(23) For growth inhibition studies, 3×10^3 cells were seeded in 96 well plates in the presence of serial dilutions of each compound. A total of 10 dilutions, ranging from 0.1 to 50 μM were performed for each compound. Standard MTT assays (23) were used to quantify cell number 3-4 days later and compared to wells exposed to DMSO vehicle only.

For assay [2], the target named is T1, c-Myc-Max heterodimers (Homo sapiens, UniProt P01106).
T1 construct: c-Myc bHLH-ZIP domain (residues 353-437); His6-TEV protease substrate tag; made in house; host or cells: bacteria (pET151 vector for Myc)
T1 sequence (P01106 368-452, one chain of several): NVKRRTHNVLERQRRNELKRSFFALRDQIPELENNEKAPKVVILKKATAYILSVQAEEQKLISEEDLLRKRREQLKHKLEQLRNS
Put plainly: Electrophoretic mobility shift assay (EMSA) of c-Myc-Max dimerization and DNA binding. The note with it: for IC50: 50% inhibition of c-Myc-Max dimerization and DNA binding in EMSAs. As for the experimental part: The ability of a small-molecule to interfere with c-Myc-Max dimerization is conveniently assessed through the disruption of the c-Myc-Max/DNA ternary complex by an electrophoretic mobility shift assay (EMSA) using fluorescently-labelled DNA, and subsequently quantified by densitometry.(23) Accordingly, a 100-member library was screened for the ability to disrupt the c-Myc-Max dimer.
These were performed essentially as described previously (23). Briefly, Ni^+-agarose-purified His6-tagged c-Myc bHLH-ZIP domain (residues 353-437) was used for all binding assays as was the His6-tagged 151 residue isoform of Max, otherwise referred to as Max(S) (residues 2-151) (21). For each binding reaction, the proteins were allowed to heterodimerize at a concentration of 30 nM each in the presence of 20 nM of a 5′-HEX-tagged double-stranded 22-base pair oligonucleotide 5′-hexachlorofluoresceine-[…]-3′ (SEQ ID NO: 1) containing a consensus c-Myc binding site (CACGTG) and the indicated concentration of small molecule inhibitor. Control reactions contained the same oligonucleotide in the presence of 60 nM of the 160 residue isoform of Max referred to as Max(L) (21). All binding reactions were prepared in a buffer consisting of PBS (pH 7.3), 1 mmol/L EDTA, 0.1% NP40, 5% glycerol, 1 mmol/L DTT, and 0.4 mg/mL bovine serum albumin. Electrophoresis was performed on 8% polyacrylamide/bisacrylamide (80:1) gels in […] (23). Each reaction was run on at least three separate occasions.
EMSAs were performed essentially as described utilizing bacterially-expressed recombinant proteins purified nearly to homogeneity.(23) Experiments with Max homodimers used the His6-tagged 160 amino acid isoform of the protein, termed Max(L), which homodimerizes and binds DNA well. For studies with Myc-Max heterodimers, the His6-tagged 151 residue isoform of Max [Max(S)] was used, which binds DNA well as a heterodimer with Myc but poorly as a homodimer.(23) Recombinant Myc protein, expressed in the pET151 vector, consisted of the His6-TEV protease substrate-tagged 85 amino acid bHLH-ZIP domain. (23) Each protein was purified by Ni-agarose affinity chromatography as previously described. (23) The His6-TEV tag was removed from the Myc protein by TEV protease cleavage followed by re-purification using Ni-agarose affinity chromatography to remove the His6-TEV protease and the cleaved His6-TEV tag as previously described. Binding assays were performed with 30 nM of each protein and 30 nM of a 6-carboxy-2′,4,4′,5′,7,7′-hexachlorofluorescein (HEX)-tagged double-stranded oligonucleotide containing a consensus Myc binding site (IDT, Coralville, Iowa).(23)
(Mobility shift assays separate free from complexed probe on a gel.)

Assay [3] has as its system HL60 cells. Kind of assay: Growth inhibition (MTT assay) in HL60 cells. The assay is classed as cell-based, human. Conditions: for IC50: Homo sapiens, HL-60, MTT assay; for IC50 HL60: MTT assay. As for the experimental part: as §1, §2
(In general: Tetrazolium dyes change colour on reduction, which living cells bring about.)

Assay [4] concerns the target T2, Max-Max homodimers (Homo sapiens, UniProt P61244).
T2 construct: His6; made in house; host or cells: bacteria
Kind of assay: EMSA of Max-Max homodimerization and DNA binding. The note with it: for IC50: 50% inhibition of Max-Max dimerization and DNA binding in EMSAs.

Where [5] appears, read: 10-point serial dilution, quadruplicate.
The mark [6] stands for this setting: 10-point serial dilution, quadruplicate, read-out: IC50 Daudi.
[7] abbreviates: Table 10, 100 μM small-molecule, EMSA, read-out: % Inhibition of c-Myc-Max Dimerization.
Where [8] appears, read: 10-point serial dilution, quadruplicate, read-out: IC50 HL60.
The mark [9] stands for this setting: Table 2, 100 μM compound, Myc-Max/DNA band intensity relative to control, read-out: Inhibition at 100 μM (%).
The mark [10] stands for this setting: Table 11, 100 uM, EMSA, read-out: % Inhibition of c-Myc-Max Dimerization.

The values below come from patent US9242944B2 (UNIVERSITY OF MARYLAND, BALTIMORE, priority 2013, dated 2016).

The structures appear in SMILES notation. “Also recorded” adds a separate entry of the source. Read-outs that look alike come from different tables or passages of the source. Some results are limits rather than exact numbers.

T2 sequence (P61244 whole entry): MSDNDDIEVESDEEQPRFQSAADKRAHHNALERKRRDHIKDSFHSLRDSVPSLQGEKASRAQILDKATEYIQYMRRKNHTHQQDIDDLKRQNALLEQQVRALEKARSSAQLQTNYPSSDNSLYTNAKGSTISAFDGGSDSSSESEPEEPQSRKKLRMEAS

Broadly, the IC50 is the concentration that gives 50% inhibition. In general, inhibition refers to the drop in the measured response relative to a control, in per cent. `Cc1ccc(-c2cc(C(=O)O)ccc2Nc2ccc([N+](=O)[O-])c3nonc23)cc1` [Compound 3jc53-6, 4′-Methyl-6-((7-nitrobenzo[c][1,2,5]oxadiazol-4-yl)amino)-[1,1′-biphenyl]-3-carboxylic acid]: the “IC50 Daudi” value in assay [1] (setting [5]) is “inactive”. Moreover, the IC50 in assay [1] (setting [6]), in assay [2], in assay [3] (setting [8]) and in assay [4] was > 100 µM throughout. In addition, the “inhibition of c-Myc-Max dimerization in vitro (in words)” value in assay [2] (EMSA) was “inactive in vitro”. Further, the inhibition at 100 µM in assay [2] (setting [7]) is 16%. Further, the “IC50 HL60” value in assay [3] (setting [5]) was “inactive”.

Consider `COC(=O)c1ccc(Nc2ccc([N+](=O)[O-])c3nonc23)c(-c2ccc(C(F)(F)F)cc2)c1` [Compound 4jc23-4, Methyl 6-((7-nitrobenzo[c][1,2,5]oxadiazol-4-yl)amino)-4′-(trifluoromethyl)-[1,1′-biphenyl]-3-carboxylate], for which the IC50 in assay [1] (setting [6]) is 0.5 ± 0.025 µM; in assay [1] (read-out: IC50 against Daudi cells), 0.5 µM; in assay [2], 75 µM; in assay [3] (setting [8]) it was 0.877 ± 0.07 µM; in assay [3] (read-out: IC50 against HL60 cells) it was 0.877 µM; in assay [4], > 100 µM. In addition, the inhibition at 100 µM in assay [2] (setting [7]) was 74%.

`O=C(O)COCC(=O)Nc1ccc(Nc2ccccc2-c2ccccc2)c2nonc12` [Compound 5e, 2-(2-((7-([1,1′-Biphenyl]-2-ylamino)benzo[c][1,2,5]oxadiazol-4-yl)amino)-2-oxoethoxy)acetic acid]: the inhibition at 100 µM in assay [2] (setting [9]) came out at 33%.

Regarding `O=[N+]([O-])c1ccc(Nc2ccccc2-c2ccccc2)cc1` [Compound 7, N-(4-Nitrophenyl)-[1,1′-biphenyl]-2-amine], the inhibition at 100 µM in assay [2] (setting [9]) was found to be 0%.

The term Kd denotes the concentration at which binding is half-saturated. Consider `O=C(O)c1ccc(Nc2ccc([N+](=O)[O-])c3nonc23)cc1` [JY-3-094, 4-((7-Nitrobenzo[c][1,2,5]oxadiazol-4-yl)amino)benzoic acid], for which, in assay [1] (setting [5]), the “IC50 Daudi” value is “inactive”. Moreover, the IC50 was > 100 µM in assay [1] (setting [6]), 33 µM in assay [2], > 100 µM in assay [3] (setting [8]) and > 100 µM in assay [4]. Also, the “c-Myc-Max inhibitory potency relative to 10074-G5” value in assay [2] (EMSA) is “around five-fold as potent”. The “inhibition of c-Myc-Max dimerization in vitro (in words)” value in assay [2] (EMSA) was “dose-dependent inhibition”. Moreover, in assay [2] (EMSA), the “selectivity for Myc-Max heterodimers over Max-Max homodimers” value is recorded as “greater than three-fold selectivity; also recorded: at least three-fold selective”. In assay [2] (EMSA dose-response (FIG. 4), read-out: Kd value, inhibition of Myc-Max dimerization), the Kd turned out to be 33 µM. Also, the inhibition at 100 µM came out at 94% in assay [2] (read-out: % Inhibition of c-Myc-Max Dimerization, Table 10, 100 μM small-molecule, EMSA); 94% in assay [2] (read-out: % Inhibition of c-Myc-Max Dimerization, Table 11, 100 uM, EMSA); 93% in assay [2] (read-out: Inhibition at 100 μM (%), Table 1, 100 μM compound, Myc-Max/DNA band intensity relative to control). Further, in assay [3] (setting [5]), the “IC50 HL60” value was “inactive”. The “activity against Max-Max homodimers” value in assay [4] (EMSA, at 100 μM) is “no effect; also recorded: no activity”.

Regarding `O=C(Nc1ccccc1)c1ccc(Nc2ccc([N+](=O)[O-])c3nonc23)cc1` [JY-5-195, 4-((7-Nitrobenzo[c][1,2,5]oxadiazol-4-yl)amino)-N-phenylbenzamide], the “IC50 Daudi” value in assay [1] (setting [5]) is “single-digit micromolar”. The IC50 was 5.1 ± 0.56 µM in assay [1] (setting [6]), 57.9 µM in assay [2], 3.1 ± 0.3 µM in assay [3] (setting [8]) and > 100 µM in assay [4]. Moreover, the “IC50 HL60” value in assay [3] (setting [5]) is “single-digit micromolar”.

Turning to `O=C(Nc1ccccc1C(F)(F)F)c1ccc(Nc2ccc([N+](=O)[O-])c3nonc23)cc1` [JY-5-261, 4-((7-Nitrobenzo[c][1,2,5]oxadiazol-4-yl)amino)-N-(2-(trifluoromethyl)phenyl)benzamide], the “IC50 Daudi” value in assay [1] (setting [5]) is recorded as “single-digit micromolar”. For the same compound, the IC50 in assay [1] (setting [6]) is 3.9 ± 0.4 µM; in assay [2] it was 71 µM; in assay [3] (setting [8]) it was 5.3 ± 0.3 µM; in assay [4] it was > 100 µM. Also, the “IC50 HL60” value in assay [3] (setting [5]) is “single-digit micromolar”.

As for `O=[N+]([O-])c1ccc(Nc2ccccc2-c2ccccc2)cc1` [SF-3-068], in assay [2] (setting [10]), the inhibition at 100 µM is 0%.

Take `O=C(O)c1cc(Nc2ccccc2-c2ccccc2)ccc1[N+](=O)[O-]` [SF-3-070]: the inhibition at 100 µM in assay [2] (setting [10]) was 5%.

Take `N#Cc1ccc(Nc2ccccc2-c2ccccc2)cc1` [SF-3-078]: the inhibition at 100 µM in assay [2] (setting [10]) came to 2%.

For `N#Cc1cc([N+](=O)[O-])ccc1Nc1ccccc1-c1ccccc1` [SF-3-079], the inhibition at 100 µM in assay [2] (setting [10]) came out at 0%.

For the compound `N#Cc1cc(Nc2ccccc2-c2ccccc2)ccc1[N+](=O)[O-]` [SF-3-080], the inhibition at 100 µM in assay [2] (setting [10]) was determined as 0%.

On to `O=[N+]([O-])c1ccc(Nc2ccccc2-c2ccccc2)nc1` [SF-3-081], for which, in assay [2] (setting [10]), the inhibition at 100 µM was 0%.

Take `N#Cc1ccc(Nc2ccccc2-c2ccccc2)c(Cl)c1` [SF-3-083]: the inhibition at 100 µM in assay [2] (setting [10]) stood at 9%.

Regarding `NC(=O)c1ccc(Nc2ccccc2-c2ccccc2)cc1` [SF-3-093A], the inhibition at 100 µM in assay [2] (setting [10]) stood at 0%.

With `O=C(O)c1ccc(Nc2ccccc2-c2ccccc2)cc1` [SF-3-093B], the inhibition at 100 µM in assay [2] (setting [10]) worked out at 4%.

Take `Nc1ccc(Nc2ccccc2-c2ccccc2)cc1` [SF-3-098]: in assay [2] (setting [10]), the inhibition at 100 µM stood at 0%.

As for `O=[N+]([O-])c1ccc(Nc2ccccc2-c2ccccc2)cc1O` [SF-3-101], the inhibition at 100 µM in assay [2] (setting [10]) stood at 0%.

Take `NC(=O)c1cc([N+](=O)[O-])ccc1Nc1ccccc1-c1ccccc1` [SF-3-103A]: in assay [2] (setting [10]), the inhibition at 100 µM came out at 0%.

For `O=C(O)c1cc([N+](=O)[O-])ccc1Nc1ccccc1-c1ccccc1` [SF-3-103B, 2-([1,1′-biphenyl]-2-ylamino)-5-nitrobenzoic acid], in assay [1] (setting [5]), the “IC50 Daudi” value was “inactive”. In addition, the IC50 in assay [1] (setting [6]) is > 100 µM; in assay [2], 84 µM; in assay [3] (setting [8]), > 100 µM; in assay [4], > 100 µM. In addition, in assay [2] (EMSA), the “c-Myc-Max inhibitory potency relative to 10074-G5” value is listed as “nearly two-fold more potent”. In addition, in assay [2] (setting [10]), the inhibition at 100 µM is ≥ 33%. For the same compound, the “IC50 HL60” value in assay [3] (setting [5]) was “inactive”.

`NC(=O)c1cc(Nc2ccccc2-c2ccccc2)ccc1[N+](=O)[O-]` [SF-3-104A]: the inhibition at 100 µM in assay [2] (setting [10]) came to 0%.

For the compound `COC(=O)c1ccc(Nc2ccccc2-c2ccccc2)cc1` [SF-3-105], the inhibition at 100 µM in assay [2] (setting [10]) amounted to 0%.

Regarding `COC(=O)c1cc([N+](=O)[O-])ccc1Nc1ccccc1-c1ccccc1` [SF-3-106], the inhibition at 100 µM in assay [2] (setting [10]) was 0%.

Regarding `COC(=O)c1cc(Nc2ccccc2-c2ccccc2)ccc1[N+](=O)[O-]` [SF-3-107], the inhibition at 100 µM in assay [2] (setting [10]) is 0%.
